The record followed here is BindingDB's records for doi:10.1021/jm300416h (Taiho Pharmaceutical, 2012).

The nature of one assay: Inhibition of human dUTPase-mediated cell proliferation in HeLa S3 cells after 72 hrs by crystal violet staining.
For the compound `C[C@@H](NS(=O)(=O)CC/C=C/Cn1ccc(=O)[nH]c1=O)c1cccc(OCC2CC2)c1`, it took 38.2 µM to reach half-maximal inhibition (IC50).

A short description of a further assay: Inhibition of human dUTPase-mediated cell proliferation in HeLa S3 cells assessed as compound concentration required to reduce 50% of 1 uM of FdUrd T/C after 24 hrs by crystal violet staining.
For the compound `CC(C)(CC/C=C/Cn1ccc(=O)[nH]c1=O)NS(=O)(=O)c1cccc(OCC(F)F)c1`, the EC50 came out at 49 nM.
The same measure, in the same setting: in the case of `CC(C)(NS(=O)(=O)c1ccccc1)c1ccc(Cn2ccc(=O)[nH]c2=O)cc1` it was 2600 nM.
Same read-out and setting: the value for `C[C@@H](NS(=O)(=O)CC/C=C/Cn1ccc(=O)[nH]c1=O)c1cccc(OC2CCCC2)c1` was 150 nM; that for `C[C@@H](NS(=O)(=O)c1ccc(Cn2ccc(=O)[nH]c2=O)cc1)c1cccc(OC2CCCC2)c1` was 610 nM.
Still for that read-out and setting: in the case of `COc1cccc(S(=O)(=O)NC(C)(C)CC/C=C/Cn2ccc(=O)[nH]c2=O)c1` it was 450 nM.
As to `CC(C)(NS(=O)(=O)c1cccc(OCC2CC2)c1)c1ccc(Cn2ccc(=O)[nH]c2=O)cc1`, the EC50 is 140 nM.
The same measure, in the same setting: in the case of `CC(C)(NS(=O)(=O)c1cccc(OC2CCCC2)c1)c1ccc(Cn2ccc(=O)[nH]c2=O)cc1` it was 120 nM; in that of `C[C@@H](NS(=O)(=O)CC/C=C/Cn1ccc(=O)[nH]c1=O)c1cccc(OCC2CC2)c1`, 66 nM.
The same measure, in the same setting: in the case of `C[C@@H](NS(=O)(=O)CC/C=C/Cn1ccc(=O)[nH]c1=O)c1cccc(OCC(F)F)c1` it was 96 nM.
Same read-out and setting: the value for `C[C@@H](NS(=O)(=O)c1ccc(Cn2ccc(=O)[nH]c2=O)cc1)c1cccc(OCC2CC2)c1` was 930 nM; that for `CC(C)(CC/C=C/Cn1ccc(=O)[nH]c1=O)NS(=O)(=O)c1ccccc1` was 2600 nM; that for `CC(C)(CC/C=C/Cn1ccc(=O)[nH]c1=O)NS(=O)(=O)c1cccc(OC2CCCC2)c1` was 200 nM.
As for `C[C@@H](NS(=O)(=O)c1ccc(Cn2ccc(=O)[nH]c2=O)cc1)c1cccc(OCC(F)F)c1`, the EC50 worked out at 610 nM.
As to `CC(C)(CCCOCn1ccc(=O)[nH]c1=O)NS(=O)(=O)c1ccccc1`, the EC50 came out at 5100 nM.
On the same count and under the same terms, the value for `CC(C)(NS(=O)(=O)c1cccc(OCC(F)F)c1)c1ccc(Cn2ccc(=O)[nH]c2=O)cc1` was 100 nM; that for `COc1cccc(S(=O)(=O)NC(C)(C)c2ccc(Cn3ccc(=O)[nH]c3=O)cc2)c1` was 3130 nM.

A word on the IC50: it is the midpoint of a concentration-inhibition curve. Low values mean inhibition by little substance, high ones a need for much substance. For orientation: EC50 means the concentration giving half of the maximal effect.
